Columns and labels:
Format in all cases: in vivo, mouse
Grin2b = assay: Cortical Grin2b mRNA levels by qPCR; conditions: 10 days CBE vs PBS; short living (A/J, C57BL6/JolaHsd) and long living (NZW, FVB) strains
Description: RNA extraction and quantitative PCR Following treatment, mice were sacrificed and their brains removed, placed on a Young Mouse Brain Slicer Matrix (BSMYS001-1, Zivic instruments, Pittsburgh, Pa., USA) and cut into 1 mm coronal sections. The cerebral cortex was separated using a spatula and snap-frozen in liquid N2 and stored at −80° C. Total RNA was isolated using the RNeasy mini kit (Qiagen GmbH, Hilden, Germany) according to manufacturer's instructions. Quantitative polymerase chain reaction (Q-PCR) was performed using PerfeCTa SYBR Green FastMix (Quanta BioSciences, Gaithersburg, Md., USA) and an ABI Prism 7300 Sequence Detection System (Applied Biosystems, Foster City, Calif., USA). […] Fold-change in mRNA levels was calculated using the comparative cycle threshold method using TATA box binding protein (TBP) for normalization. P-values were calculated using a two-tailed, two-independent sample Student's t-test. […]
Based on the predictive studies described above, the involvement of Grin2b in the pathogenesis of neuropathic GD was evaluated. […] Since non-coding SNPs can regulate the expression of quantitative trait locus (QTL), the mRNA levels of Grin2b were determined by qPCR. […] The transcript levels was determined in 2 short living (A/J and C57BL6/JolaHsd) and 2 long living strains (NZW and FVB) 10 days following PBS or CBE treatment.

[1] = test system: GlcCer, GlcSo, GalCer, GalSo levels in the brain; assay: Sphingolipid analysis (LC-ESI-MS/MS) of brains of treated mice; conditions: P18
Description: Sphingolipid analysis—LC-ESI-MS/MS was performed using an ABI 4000 quadrupole-linear ion trap mass spectrometer as previously described (Farfel-Becker et al. Hum Mol Genet. 2014; 23(4):843-54). The sphingolipid internal standards were obtained from Avanti Polar Lipids (Alabaster, Ala., USA).
In the next step, the consequences of GBA1 inhibition, GlcCer accumulation, was analyzed. As expected, CBE-treated mice presented higher levels of GlcCer in the brain in comparison to the controls. The average elevation in GlcCer levels in CBE-treated brains was 3.7-fold compared to PBS-treated mice (FIG. 3C). C18, the most abundant GlcCer species in the brain, was the main GlcCer species elevated (not shown). Importantly, there was no correlation between the levels of GlcCer in the brain and life spans either in the PBS(R^2=0.1441, data not shown) or CBE conditions (R^2=0.0569, FIG. 3C). There was also no correlation between the change in GlcCer levels in each strain and the life spans (R^2=0.0311, data not shown). In addition, no correlation was found between each individual GlcCer subspecies (C14, C16, C18:1, C18, C20, C22, C24:1, C24, C26:1, and C26) and life spans under PBS and CBE conditions (data not shown).
Glucosylsphingosine (GlcSo) is another lipid known to be elevated in GD and it has been proposed as a GD biomarker (Rolfs et al. PLoS One. 2013 Nov. 20; 8(11):e79732). An average elevation of ˜36-fold in GlcSo levels was found in the CBE-treated brains as compared to the controls (FIG. 3D). The potential correlation between GlcSo levels and the life spans of mice was explored—no correlation was found either under PBS(R^2=0.068, data not shown), or in the CBE-treated brains (R^2=0.0013, FIG. 3D). Similarly to the other lipids, there was no correlation between the change in GlcSo levels and mice life spans (R^2=0.0775, data not shown).
In addition, GalCer and GalSo levels were analyzed in the brains of the treated mice (FIGS. 3E-3F).

[2] = test system: motor coordination of CBE-treated mice; assay: Locomotor testing by the hanging wire test; conditions: short living CBE-treated strains; weekly from P21 for 2 months
Description: Locomotor testing—Locomotor coordination was weekly evaluated in the treated strains by the hanging wire test, a validated test for LSD mouse models (Alvarez et al. 2008). Briefly, the mouse was placed with forepaws at a center of a horizontal bar (3 mm diameter; 35 mm long).
To further characterize the effect of CBE treatment on the different strains, motor behavior was followed weekly using the hanging wire test, starting at postnatal day 21 for a period of 2 months. The hanging wire test evaluates coordination and locomotor function, wherein a high score means better coordination. […] Of note, strains PWD/PhJ and WSB/EiJ were excluded in the motor behavior analysis due to their wild behavior.

O[C@H]1[C@H](O)[C@@H](O)[C@@H]2O[C@@H]2[C@@H]1O [CBE, Conduritol-β-epoxide]
Grin2b expression levels (cortical mRNA, qPCR) (Grin2b): increased only in the short-living strains | average elevation in GlcCer levels in the brain ([1]; CBE-treated brains compared to PBS-treated mice): 3.7 fold | average elevation in GlcSo levels in the brain ([1]; CBE-treated brains compared to controls): ~36 fold | GalCer levels in the brain ([1]; CBE-treated mice vs PBS): no elevation | GalSo levels in the brain ([1]; CBE-treated mice vs PBS): no elevation | motor behavior (hanging wire test) [2]: poor motor behaviors starting at very early time points

Reference: US20170273917A1, “NMDA RECEPTOR ANTAGONISTS FOR TREATING GAUCHER DISEASE” (Yeda Research and Development Co. Ltd., priority 2014, published 2017)
